The record followed here is ChEMBL document CHEMBL1201862, “PubChem BioAssay data set” (2004).

Test in all cases: growth of human tumour cells (NCI), 48 h
The subject of assay [1] is CCRF-CEM.
Assay [2] has as its system RPMI-8226.
In assay [3] the test system is COLO 205.
Assay [4] relates to KM12.
Assay [5] deals with UACC-62.
Assay [6] deals with NCI-H460.
Assay [7] deals with LOX IMVI.
The subject of assay [8] is MOLT-4.
The test system of assay [9] is HCT-15.
The test system of assay [10] is OVCAR-3.
Assay [11] deals with T47D.
The test system of assay [12] is TK-10.
For assay [13], the system named is M14.
Assay [14] concerns MDA-MB-435.
The test system of assay [15] is SK-MEL-28.
Assay [16] deals with SK-MEL-5.
For assay [17], the system named is K562.
Assay [18] concerns SF-268.
Assay [19] deals with A498.
For assay [20], the system named is SK-OV-3.

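Interpolation was linear, between the two tested concentrations surrounding the appropriate level; five concentrations were tested over 48 hours in 96-well plates. Abbreviation: GI50, concentration required for 50% inhibition of growth.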 Active and inactive are the calls of the source. Rule as the data show it: active = GI50 up to about 1.1 µM and inactive = higher.

For the molecule `O=C1OC(OC/C(Br)=C(\Br)COC2OC(=O)C(Cl)=C2Cl)C(Cl)=C1Cl` (stereo not given), the GI50 in assay [1] was 0.659 µM (active); in [2], 1.08 µM (active); in assay [3] it was 1.67 µM (inactive); in assay [4], 15.2 µM (inactive); in assay [5] it was 6.3 µM (inactive); in assay [6], 13.2 µM (inactive). In addition, the GI50 in [7] is 2.58 µM (inactive); in [8] it was 0.807 µM (active); in assay [9], 2.8 µM; in assay [10] it was 3.95 µM (inactive); in assay [11], 12.6 µM (inactive); in assay [12], 4.67 µM (inactive). Besides, the GI50 in [13] is 3.66 µM (inactive); in assay [14] it was 7.24 µM (inactive); in assay [15], 7.82 µM (inactive); in assay [16], 8.83 µM (inactive); in [17] it was 1.14 µM (inactive); in assay [18], 8.43 µM (inactive). The GI50 was 19.5 µM (inactive) in [19] and 22.2 µM (inactive) in assay [20].
